According to patent US20160168118A1, “N-(5-QUINOLIN-6-YL)PYRIDIN-3-YL) BENZSULFAMIDE DERIVATIVES, PREPARATION METHOD AND THERAPEUTIC USE THEREOF” (SECOND MILITARY MEDICAL UNIVERSITY, PLA, priority 2012, published 2016):
In brackets after ≈: the same amount, converted by molar mass.

Assays:
[1] = target: PI3Kα (Homo sapiens, UniProt P42336); assay: Kinase-Glo Luminescent Kinase Assay, PI3Kα; type: biochemical
[2] = test system: U87MG (human brain star glioblastoma); assay: MTT assay, U87MG; type: cell-based; conditions: U-87 MG, 72 h
Experimental: (§1) 1. Sample preparation: After dissolved with DMSO (Merck), PBS (−) was added to make 1000 μg/ml solution or a uniform suspension, and then diluted with PBS (−) containing the DMSO. Doxorubicin (DOX) was used as the positive control drug.
(§2) 2. Cell Line • 1) A549 (human lung cancer cells); 2) HCT116 (human colon cancer cells); 3) HepG2 (human hepatoma cells); 4) ZR-75-30 (human breast cancer cells); 5) U87MG (human brain star glioblastoma)
(§3) DMEM+5-10% FBS+double resistant
(§4) MTT assay. 100 μl cell suspension was added at a concentration of 4˜5×10^4 cells/ml to each well of a 96-well plate, and was set at 37° C., 5% CO2 in the incubator. After 24 h, the sample solution was added, 10 μl/hole, double wells were set, 37° C., acting for 72 h at 5% CO2. […] of 5 mg/ml was added to each well, the dissolving liquid was added after acted for 4 h, 100 μl/hole, kept in the incubator, and read 570 nm OD with MK-2 automatic microplate reader after dissolution.

[3] = test system: HepG2 (human hepatoma cells); assay: MTT assay, HepG2; type: cell-based; conditions: 72 h
Experimental: as §1, §2, §3, §4

[4] = test system: HCT116 (human colon cancer cells); assay: MTT assay, HCT116; type: cell-based; conditions: HCT-116, 72 h
[5] = test system: A549 (human lung cancer cells); assay: MTT assay, A549; type: cell-based; conditions: 72 h
Experimental: as §1, §2, §3, §4

[6] = test system: ZR-75-30 (human breast cancer cells); assay: MTT assay, ZR-75-30; type: cell-based; conditions: 72 h
Experimental: as §1, §2, §3, §4

PI3Kα, sequence (P42336 whole entry, species assumed): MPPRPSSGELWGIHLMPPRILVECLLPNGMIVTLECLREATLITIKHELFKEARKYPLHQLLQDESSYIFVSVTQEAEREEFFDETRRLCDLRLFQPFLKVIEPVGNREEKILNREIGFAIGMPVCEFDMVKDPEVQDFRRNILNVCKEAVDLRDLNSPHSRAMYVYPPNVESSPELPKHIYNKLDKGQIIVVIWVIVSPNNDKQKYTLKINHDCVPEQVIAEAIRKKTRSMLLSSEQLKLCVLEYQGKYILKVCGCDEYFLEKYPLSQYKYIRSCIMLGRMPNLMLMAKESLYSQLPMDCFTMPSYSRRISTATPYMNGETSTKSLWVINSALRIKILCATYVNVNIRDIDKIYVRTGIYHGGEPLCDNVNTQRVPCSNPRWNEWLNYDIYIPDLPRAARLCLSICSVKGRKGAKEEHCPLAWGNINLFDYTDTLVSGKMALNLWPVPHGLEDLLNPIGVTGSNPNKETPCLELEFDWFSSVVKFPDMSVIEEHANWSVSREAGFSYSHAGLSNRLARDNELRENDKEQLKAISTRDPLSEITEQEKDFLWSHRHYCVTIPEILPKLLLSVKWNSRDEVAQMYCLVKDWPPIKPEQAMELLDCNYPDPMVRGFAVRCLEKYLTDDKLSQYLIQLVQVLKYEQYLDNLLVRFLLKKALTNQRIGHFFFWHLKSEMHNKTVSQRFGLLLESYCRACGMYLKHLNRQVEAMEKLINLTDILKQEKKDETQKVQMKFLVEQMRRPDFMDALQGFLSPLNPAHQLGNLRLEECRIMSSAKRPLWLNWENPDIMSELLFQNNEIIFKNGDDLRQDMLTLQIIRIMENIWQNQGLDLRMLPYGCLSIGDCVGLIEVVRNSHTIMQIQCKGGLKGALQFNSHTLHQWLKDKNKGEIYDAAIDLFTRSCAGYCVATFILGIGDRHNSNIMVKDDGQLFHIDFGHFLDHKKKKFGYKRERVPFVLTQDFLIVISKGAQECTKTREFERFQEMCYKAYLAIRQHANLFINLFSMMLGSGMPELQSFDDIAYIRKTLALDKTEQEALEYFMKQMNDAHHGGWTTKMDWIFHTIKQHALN
PI3Kα, sequence (P27986 whole entry partner, species assumed): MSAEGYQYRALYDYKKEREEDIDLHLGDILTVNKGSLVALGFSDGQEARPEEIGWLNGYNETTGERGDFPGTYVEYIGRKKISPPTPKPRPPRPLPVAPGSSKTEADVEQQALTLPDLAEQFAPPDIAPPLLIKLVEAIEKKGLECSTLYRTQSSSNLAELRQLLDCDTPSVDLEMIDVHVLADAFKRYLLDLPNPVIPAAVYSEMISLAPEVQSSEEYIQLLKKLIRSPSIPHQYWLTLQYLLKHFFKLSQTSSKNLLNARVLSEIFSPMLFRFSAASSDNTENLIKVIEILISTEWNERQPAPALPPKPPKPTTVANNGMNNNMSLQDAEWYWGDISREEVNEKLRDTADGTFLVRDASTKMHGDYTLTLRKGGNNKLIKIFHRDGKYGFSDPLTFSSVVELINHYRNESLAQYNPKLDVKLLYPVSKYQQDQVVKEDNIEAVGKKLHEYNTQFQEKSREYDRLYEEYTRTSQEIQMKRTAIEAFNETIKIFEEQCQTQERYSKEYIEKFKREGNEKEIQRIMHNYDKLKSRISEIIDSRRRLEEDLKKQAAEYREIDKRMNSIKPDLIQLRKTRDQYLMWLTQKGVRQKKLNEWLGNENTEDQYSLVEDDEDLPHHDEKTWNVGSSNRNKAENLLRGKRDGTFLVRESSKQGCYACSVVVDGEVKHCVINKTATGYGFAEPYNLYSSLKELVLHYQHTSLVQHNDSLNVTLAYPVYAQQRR

Compound | IC50 [1] | IC50 [2] | IC50 [3] | IC50 [4] | IC50 [5] | IC50 [6] | melting point
COc1ncc(-c2ccc3nccc(N4CCCC4)c3c2)cc1NS(=O)(=O)c1ccc(F)cc1F [Compound 2] | > 100 nM | 3.32 µg/mL (≈ 6.69 µM) | 9.83 µg/mL (≈ 19.8 µM) | 1.65 µg/mL (≈ 3.32 µM) | 1.69 µg/mL (≈ 3.41 µM) | 6.73 µg/mL (≈ 13.6 µM) | 223 to 225 °C
COc1ncc(-c2ccc3nccc(N4CCOCC4)c3c2)cc1NS(=O)(=O)c1ccc(F)cc1F [Compound 3, N-(2-methoxy-5-(4-morpholinequinolin-6-yl)pyridin-3-yl)-2,4-difluorobenzenesulfonamide] | 1.4 nM | 64.7 µg/mL (≈ 126 µM) | 11.5 µg/mL (≈ 22.4 µM) | 2.27 µg/mL (≈ 4.43 µM) | 1.23 µg/mL (≈ 2.4 µM) | 2.16 µg/mL (≈ 4.21 µM) | 219 to 221 °C
COc1ncc(-c2ccc3nccc(Cl)c3c2)cc1NS(=O)(=O)c1ccc(F)cc1F [Compound 4, N-(5-(4-chlorinequinolin-6-yl)-2-methoxypyridine-3-yl)-2,4-difluorobenzenesulfonamide] | 2.3 nM | > 100 µg/mL | 2.26 µg/mL (≈ 4.89 µM) | 3.04 µg/mL (≈ 6.59 µM) | 1.36 µg/mL (≈ 2.94 µM) | 2.59 µg/mL (≈ 5.61 µM) | 171 to 173 °C
COc1ncc(-c2ccc3nccc(-c4ccc(C)cc4)c3c2)cc1NS(=O)(=O)c1ccc(F)cc1F [Compound 6, N-(2-methoxy-5-(4-(p-methylphenyl)quinolin-6-yl)pyridin-3-yl)-2,4-difluorobenzenesulfonamide] | 4.5 nM | 34.7 µg/mL (≈ 67 µM) | 5.63 µg/mL (≈ 10.9 µM) | 1.31 µg/mL (≈ 2.54 µM) | 0.642 µg/mL (≈ 1.24 µM) | 6.69 µg/mL (≈ 12.9 µM) | 175 to 176 °C
COC(=O)c1ccc(-c2ccnc3ccc(-c4cnc(OC)c(NS(=O)(=O)c5ccc(F)cc5F)c4)cc23)cc1 [Compound 7, 4-(6-(5-(2,4-difluorobenzenesulfonamideyl)-6-methoxypyridine-3-yl)quinolin-4-yl)methyl benzoate] | 1.5 nM | 3.9 µg/mL (≈ 6.95 µM) | 1.16 µg/mL (≈ 2.07 µM) | 0.277 µg/mL (≈ 0.493 µM) | 0.014 µg/mL (≈ 0.0249 µM) | 1.74 µg/mL (≈ 3.1 µM) | 69 to 72 °C
CCOC(=O)c1ccc(-c2ccnc3ccc(-c4cnc(OC)c(NS(=O)(=O)c5ccc(F)cc5F)c4)cc23)cc1 [Compound 8, 4-(6-(5-(2,4-difluorobenzenesulfonamideyl)-6-methoxypyridine-3-yl)quinolin-4-yl) ethyl benzoate] | 2.6 nM | 11.7 µg/mL (≈ 20.3 µM) | 2.65 µg/mL (≈ 4.6 µM) | 0.235 µg/mL (≈ 0.408 µM) | 0.043 µg/mL (≈ 0.0747 µM) | 2.45 µg/mL (≈ 4.26 µM) | 90 to 92 °C
COc1ncc(-c2ccc3nccc(-c4ccc(CN(C)C)cc4)c3c2)cc1NS(=O)(=O)c1ccc(F)cc1 [Compound 31, N-(5-(4-(4-((dimethylamine)methyl)phenyl)quinolin-6-yl)-2-methoxypyridine-3-yl)-4-fluorobenzenesulfonamide] | 2.1 nM | – | 1.64 µg/mL (≈ 3.02 µM) | 1.02 µg/mL (≈ 1.88 µM) | 0.2 µg/mL (≈ 0.369 µM) | – | 150 to 152 °C

Compounds with a lower IC50 [1], results first:

IC50 [1] | IC50 [2] | IC50 [3] | IC50 [4] | IC50 [5] | IC50 [6] | melting point | Compound
1.1 nM | 2.88 µg/mL (≈ 4.89 µM) | 0.613 µg/mL (≈ 1.04 µM) | 0.00293 µg/mL (≈ 0.00498 µM) | 0.013 µg/mL (≈ 0.0221 µM) | 0.783 µg/mL (≈ 1.33 µM) | 106 to 108 °C | CCN(CC)Cc1ccc(-c2ccnc3ccc(-c4cnc(OC)c(NS(=O)(=O)c5ccc(F)cc5F)c4)cc23)cc1 [Compound 5, N-(5-(4-(4-((diethylamine)methyl)phenyl)quinolin-6-yl)-2-methoxypyridine-3-yl)-2,4-difluorobenzenesulfonamide]
1.2 nM | – | 9.49 µg/mL (≈ 19.9 µM) | 1.04 µg/mL (≈ 2.18 µM) | 1.02 µg/mL (≈ 2.14 µM) | – | 122 to 124 °C | COc1ncc(-c2ccc3nccc(-n4cncn4)c3c2)cc1NS(=O)(=O)c1ccc(F)cc1 [Compound 25, N-(5-(4-(1H-1,2,4-triazole-1-yl)quinolin-6-yl)-2-methoxypyridine-3-yl)-4-fluorobenzenesulfonamide]
0.59 nM | – | 2.8 µg/mL (≈ 5.61 µM) | 1.23 µg/mL (≈ 2.47 µM) | 2.35 µg/mL (≈ 4.71 µM) | – | 118 to 121 °C | O=S(=O)(Nc1cc(-c2ccc3nccc(-n4cncn4)c3c2)cnc1Cl)c1ccc(F)cc1F [Compound 26, N-(5-(4-(1H-1,2,4-triazole-1-yl)quinolin-6-yl)-2-chlorinepyridin-3-yl)-2,4-difluorobenzenesulfonamide]
0.81 nM | – | 9.43 µg/mL (≈ 19.6 µM) | 1.22 µg/mL (≈ 2.54 µM) | 1.16 µg/mL (≈ 2.41 µM) | – | 258 to 261 °C | O=S(=O)(Nc1cc(-c2ccc3nccc(-n4cncn4)c3c2)cnc1Cl)c1ccc(F)cc1 [Compound 27, N-(5-(4-(1H-1,2,4-triazole-1-yl)quinolin-6-yl)-2-chlorinepyridin-3-yl)-4-fluorobenzenesulfonamide]
0.69 nM | – | 2.18 µg/mL (≈ 3.86 µM) | 1.03 µg/mL (≈ 1.82 µM) | 2.12 µg/mL (≈ 3.75 µM) | – | 160 to 164 °C | CN(C)Cc1ccc(-c2ccnc3ccc(-c4cnc(Cl)c(NS(=O)(=O)c5ccc(F)cc5F)c4)cc23)cc1 [Compound 32, N-(5-(4-(4-((dimethylamine)methyl)phenyl)quinolin-6-yl)-2-chlorinepyridin-3-yl)-2,4-difluorobenzenesulfonamide]
0.73 nM | – | 5.47 µg/mL (≈ 9.58 µM) | 1.43 µg/mL (≈ 2.5 µM) | 1.52 µg/mL (≈ 2.66 µM) | – | 235 to 236 °C | O=S(=O)(Nc1cc(-c2ccc3nccc(-c4ccc(Cn5cncn5)cc4)c3c2)cnc1Cl)c1ccc(F)cc1 [Compound 33, N-(5-(4-(4-((1H-1,2,4-triazole-1-yl)methyl)phenyl)quinolin-6-yl)-2-chlorinepyridin-3-yl)-4-fluorobenzenesulfonamide]
0.91 nM | – | 7.18 µg/mL (≈ 12.7 µM) | 1.15 µg/mL (≈ 2.03 µM) | 0.28 µg/mL (≈ 0.494 µM) | – | 150 to 152 °C | COc1ncc(-c2ccc3nccc(-c4ccc(Cn5cncn5)cc4)c3c2)cc1NS(=O)(=O)c1ccc(F)cc1 [Compound 34, N-(5-(4-(4-((1H-1,2,4-triazole-1-yl)methyl)phenyl)quinolin-6-yl)-2-methoxypyridine-3-yl)-4-fluorobenzenesulfonamide]
0.82 nM | – | 1.2 µg/mL (≈ 2.04 µM) | 1.64 µg/mL (≈ 2.78 µM) | 5.66 µg/mL (≈ 9.61 µM) | – | 145 to 148 °C | O=S(=O)(Nc1cc(-c2ccc3nccc(-c4ccc(Cn5cncn5)cc4)c3c2)cnc1Cl)c1ccc(F)cc1F [Compound 35, N-(5-(4-(4-((1H-1,2,4-triazole-1-yl)methyl)phenyl)quinolin-6-yl)-2-chlorinepyridin-3-yl)-2,4-difluorobenzenesulfonamide]
1 nM | – | 1.1 µg/mL (≈ 1.91 µM) | 1.06 µg/mL (≈ 1.84 µM) | 0.13 µg/mL (≈ 0.225 µM) | – | 214 to 217 °C | CN(CCO)Cc1ccc(-c2ccnc3ccc(-c4cnc(Cl)c(NS(=O)(=O)c5ccc(F)cc5)c4)cc23)cc1 [Compound 36, N-(5-(4-(4-(((2-hydroxyethyl)(methyl)amino)methyl)phenyl)quinolin-6-yl)-2-chlorinepyridin-3-yl)-4-fluorobenzenesulfonamide]
0.75 nM | – | 1.71 µg/mL (≈ 2.87 µM) | 1.89 µg/mL (≈ 3.18 µM) | 1.08 µg/mL (≈ 1.81 µM) | – | 132 to 135 °C | CN(CCO)Cc1ccc(-c2ccnc3ccc(-c4cnc(Cl)c(NS(=O)(=O)c5ccc(F)cc5F)c4)cc23)cc1 [Compound 37, N-(5-(4-(4-(((2-hydroxyethyl)(methyl)amino)methyl)phenyl)quinolin-6-yl)-2-chlorinepyridin-3-yl)-2,4-difluorobenzenesulfonamide]
